Values quoted from earlier work, collected in patent publication US20080254143A1, “COMPOSITION FOR IMPROVING IMMUNE SYSTEM HEALTH” (priority 2007, published 2008).

Assays:
rhinovirus = details: prevents formation of viral capsid proteins
common cold [1] = details: administered or recruited within 24 hrs of the onset of symptoms
common cold [2] = details: daily supplementation, amounts greater than 100 mg
TNF-α = details: activated macrophages (LPS/IFN-gamma-activated RAW 264.7)

Row | Compound | duration and severity of symptoms of a common cold (common cold [1]) | also measured
1 | [Zn] [zinc, Zinc] | reducing the duration and severity | in vitro replication of the rhinovirus (rhinovirus): inhibits in vitro replication
2 | O=S(=O)([O-])[O-].[Zn+2] [Zinc sulphate] | reduce the duration and overall severity | –
3 | O=C1O[C@H]([C@@H](O)CO)C(O)=C1O [ascorbic acid, L-ascorbic acid] | – | incidence, severity and integrated morbidity of the common cold (common cold [2]): lowers the incidence, severity and integrated morbidity
4 | CC(=O)[O-].CC(=O)[O-].[Zn+2] [Zinc acetate] | reduce the duration and overall severity | –
5 | Anthocyanins | – | TNF-α production (TNF-α): induce TNF-α production
